assay: recombinant UMI read abundance after kanamycin selection (control-corrected) (log10(CPM+1)); higher = more efficient recombination; extreme values may be limits of the assay; sequences stand for … in AGTGCAGAGAAAATCGGCCAGTTTTCTCTGCCTGCAGTCCGCATGCCGTGGGACCCCTTGGGTTCTAACCTGTTGCCTAGATTTATGCAGCGGACTGCCTTTCTCCCAAAGTGATAAACCGG…AGGTTGGTTTCACT; site = the 11-nt donor
Outline: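 Counts of recombinant UMIs were reported as log10(CPM+1). Before that, they were converted to CPM, averaged over replicates and scaled using control-derived factors. They came from PCR across the donor–target junction after Escherichia coli carrying the pair library and target plasmid was plated on IPTG (0.07 mM) plus kanamycin, or unselected, in two replicates each.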
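Note: IS621 bridge recombinase in Escherichia coli cells against a fixed T5 target plasmid.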

Sequence	recombinant UMI read abundance (log10)
CTCGAACCATGGACCGGTTTTCCCGGTAATCCGTATTTGAC (site CTCGAACCTGT)	0
AGTTCAGCATGGACCGGTTTTCCCGGTAATCCGTATTTGGG (site AGTTCAGCTCC)	0.017
CCGACATCATGGACCGGTTTTCCCGGTAATCCGTATTTGCT (site CTGACATCTAG)	0
GTAGGTACATGGACCGGTTTTCCCGGTAATCCGTATTTGAC (site GTAGCTACTGT)	0.853
GTCCATTCATGGACCGGTTTTCCCGGTAATCCGTATTTGCT (site GTCCATTCTAG)	0.671
GTAGTACCATGGACCGGTTTTCCCGGTAATCCGTATTTGAC (site CTAGTATCTGT)	0
TCAGTTTCATGGACCGGTTTTCCCGGTAATCCGTATTTGCA (site ACAGTATCTTG)	0.0288
TCCACGCCATGGACCGGTTTTCCCGGTAATCCGTATTTGCC (site TCCACGCCTGG)	0
TACCCGCCATGGACCGGTTTTCCCGGTAATCCGTATTTGCG (site TACCCGCCTCG)	0.26
CCGGTATCATGGACCGGTTTTCCCGGTAATCCGTATTTGAC (site CTAGTATCTGT)	0
CGAGGAACATGGACCGGTTTTCCCGGTAATCCGTATTTGTT (site CGAGGAACTAA)	2.78
GTATGACCATGGACCGGTTTTCCCGGTAATCCGTATTTGGC (site GTATGACCTGC)	0
CGTTAGGCATGGACCGGTTTTCCCGGTAATCCGTATTTGAG (site CGTTAGCCTCT)	0.00789
GTACACGCATGGACCGGTTTTCCCGGTAATCCGTATTTGCT (site GTACACGCTAG)	2.16
CGGACATCATGGACCGGTTTTCCCGGTAATCCGTATTTGCT (site CGGCCATCTAG)	0.0134
AATACTTCATGGACCGGTTTTCCCGGTAATCCGTATTTGGA (site AATACTTCTTC)	1.81
CGGGAGTCATGGACCGGTTTTCCCGGTAATCCGTATTTGTC (site CGGGAGTCTGG)	2.03
AGGGTTACATGGACCGGTTTTCCCGGTAATCCGTATTTGGG (site AGGGTTACTCC)	0.175
ATCTATCCATGGACCGGTTTTCCCGGTAATCCGTATTTGAC (site ATCTATACTGT)	0
GTTGTCCCATGGACCGGTTTTCCCGGTAATCCGTATTTGGT (site GTTGTACCTAC)	0.00965
TCAGACTCATGGACCGGTTTTCCCGGTAATCCGTATTTGCA (site TCAGACTCTTG)	2.95
AACTATGCATGGACCGGTTTTCCCGGTAATCCGTATTTGGA (site AACTATGCTTC)	1.22
TGATCCCCATGGACCGGTTTTCCCGGTAATCCGTATTTGTA (site TGATCCCCTTA)	0.674
GGTCGAACATGGACCGGTTTTCCCGGTAATCCGTATTTGTA (site GGTCAAACTTA)	0.0946
GTTAGAACATGGACCGGTTTTCCCGGTAATCCGTATTTGCC (site GTTAGAACTGT)	0

Sequence	recombinant UMI read abundance (log10)
AACACACCATGGACCGGTTTTCCCGGTAATCCGTATTTGAC (site AACACACCTGT)	0
CACACGGCATGGACCGGTTTTCCCGGTAATCCGTATTTGAG (site CACACGGCTCT)	1.83
CTCTACACATGGACCGGTTTTCCCGGTAATCCGTATTTGCT (site CTCGACACTAG)	0.288
ACATACGCATGGACCGGTTTTCCCGGTAATCCGTATTTGGC (site ACATACGCTGC)	2.78
CCAGGTGCATGGACCGGTTTTCCCGGTAATCCGTATTTGAT (site CCAGGTACTAT)	0.835
TAAAGTCCATGGACCGGTTTTCCCGGTAATCCGTATTTGCA (site TAAAGTCCTTC)	0.00901
ACTAGAGCATGGACCGGTTTTCCCGGTAATCCGTATTTGGT (site ACTAGCGCTAC)	0.398
ATGAGGCCATGGACCGGTTTTCCCGGTAATCCGTATTTGAC (site ATAAGGCCTGT)	0
GCGACGCCATGGACCGGTTTTCCCGGTAATCCGTATTTGGG (site GCGAGGCCTCC)	0.0192
ATCCGAGCATGGACCGGTTTTCCCGGTAATCCGTATTTGAG (site ATCCGAGCTCT)	0.924
CAAACAGCATGGACCGGTTTTCCCGGTAATCCGTATTTGCT (site CAAGCAGCTAG)	0.00437
TTGCCTTCATGGACCGGTTTTCCCGGTAATCCGTATTTGGT (site TAGCCTTCTAC)	0.0133
GCTATCACATGGACCGGTTTTCCCGGTAATCCGTATTTGGG (site GCTATCACTCC)	0.147
CCATTTGCATGGACCGGTTTTCCCGGTAATCCGTATTTGGC (site CCATTTGCTGC)	0
CACATATCATGGACCGGTTTTCCCGGTAATCCGTATTTGTC (site CCCATATCTGA)	0.724
CTGACGACATGGACCGGTTTTCCCGGTAATCCGTATTTGCA (site CTGACGACTTG)	1.71
CACTTGGCATGGACCGGTTTTCCCGGTAATCCGTATTTGGA (site CACTTGCCTTC)	0.407
CGAGTGGCATGGACCGGTTTTCCCGGTAATCCGTATTTGAG (site CGAGTGGCTCT)	1.85
AGACAGTCATGGACCGGTTTTCCCGGTAATCCGTATTTGAT (site AGACAGTCTAT)	2.94
CACGGCCCATGGACCGGTTTTCCCGGTAATCCGTATTTGGT (site CACGGCCCTAG)	0
CGTAATACATGGACCGGTTTTCCCGGTAATCCGTATTTGTT (site CGTAATACTAA)	0.809
AGCCTTGCATGGACCGGTTTTCCCGGTAATCCGTATTTGTA (site AGCCTTGCTTA)	0.019
CGAGGACCATGGACCGGTTTTCCCGGTAATCCGTATTTGTG (site CGAGGACCTCC)	0.0189
CAAGACACATGGACCGGTTTTCCCGGTAATCCGTATTTGGG (site CAAGACACTCC)	1.28
TCATACTCATGGACCGGTTTTCCCGGTAATCCGTATTTGGA (site TCATACTCTTT)	1.17

Sequence	recombinant UMI read abundance (log10)
CGCCCTACATGGACCGGTTTTCCCGGTAATCCGTATTTGCT (site CGCCGTACTAG)	0.0214
TATAGGCCATGGACCGGTTTTCCCGGTAATCCGTATTTGAG (site TATAGGCCTCT)	0.0191
ACTAGTGCATGGACCGGTTTTCCCGGTAATCCGTATTTGGT (site ACTAATGCTAC)	0.409
GGTCCAACATGGACCGGTTTTCCCGGTAATCCGTATTTGGA (site GGTCCAACTTG)	0.0106
AGTTCAGCATGGACCGGTTTTCCCGGTAATCCGTATTTGGG (site AGCTCAGCTCC)	0.0322
ACAGAATCATGGACCGGTTTTCCCGGTAATCCGTATTTGGA (site ACAGAATCTTC)	2.48
TCATACACATGGACCGGTTTTCCCGGTAATCCGTATTTGCA (site TCATACACTTG)	2.45
ACTGAGACATGGACCGGTTTTCCCGGTAATCCGTATTTGGT (site AATGAGACTAC)	0.158
CACTTGGCATGGACCGGTTTTCCCGGTAATCCGTATTTGGA (site CACTTGGCTGC)	0.96
CGTGTTGCATGGACCGGTTTTCCCGGTAATCCGTATTTGTC (site CGTGTTGCTGA)	2.08
AAACATCCATGGACCGGTTTTCCCGGTAATCCGTATTTGAC (site AGACATCCTGT)	0
CCATTAGCATGGACCGGTTTTCCCGGTAATCCGTATTTGTG (site CCCTTAGCTCA)	0.00634
CACTTGGCATGGACCGGTTTTCCCGGTAATCCGTATTTGGA (site CACTTGACTTC)	0.231
CGAAAACCATGGACCGGTTTTCCCGGTAATCCGTATTTGTT (site CGGAATCCTAA)	0
GTGCAGGCATGGACCGGTTTTCCCGGTAATCCGTATTTGTG (site GTGCAGGCTCA)	1.17
TCTAACCCATGGACCGGTTTTCCCGGTAATCCGTATTTGCA (site TCTAACCCTTG)	0
ACAATCTCATGGACCGGTTTTCCCGGTAATCCGTATTTGCA (site ACAATCTCTTG)	2.51
AACCGTCCATGGACCGGTTTTCCCGGTAATCCGTATTTGGT (site AACCGTCCTAT)	0.00572
TAAGAATCATGGACCGGTTTTCCCGGTAATCCGTATTTGCG (site TACGAATCTCG)	1.95
CTCTACACATGGACCGGTTTTCCCGGTAATCCGTATTTGCT (site CTCAACACTAG)	0
CCTGCAGCATGGACCGGTTTTCCCGGTAATCCGTATTTGGC (site CCTGCAGCTGC)	0
AACGGTCCATGGACCGGTTTTCCCGGTAATCCGTATTTGGC (site AACGGTCCTGC)	0
CATAACGCATGGACCGGTTTTCCCGGTAATCCGTATTTGGG (site CATAACGCTCC)	0.802
TCATACACATGGACCGGTTTTCCCGGTAATCCGTATTTGCA (site TCATACCCTTG)	0.302
CTCCCTACATGGACCGGTTTTCCCGGTAATCCGTATTTGAG (site CTCCTTACTCT)	0.00587

Source: the supplement of paper PMC11208160
